In patent US20090281054A1, “COMPOSITIONS AND METHODS COMPRISING CAPURAMYCIN ANALOGUES” (priority 2008, published 2009):
In brackets after ≈: the same amount, converted by molar mass.

Key:
M. smegmatis = test: Synergy by checkerboard titration (microdilution); format: cell-based
MTB inside macrophages = test: Intracellular activity of DMSO-solubilized drug in MTB infected macrophages; format: cell-based, Mycobacterium tuberculosis; settings: for Mean RLU at Day 7: Day 0 RLU 443, Control Day 7 4251
M. abscessus = test: Synergy by checkerboard titration (microdilution); format: cell-based
[1] = system: M. abscessus (MAB; ATCC 700869); test: MIC by microdilution method in 7H9 broth; format: cell-based; settings: Mycobacteroides abscessus, ATCC700869; MAB 700869; read-out: MIC
MTB = test: Synergy by checkerboard titration (microdilution); format: cell-based, Mycobacterium tuberculosis
Method: Synergistic activity with other anti-TB drugs against MSMG, MTB, MAB, and MAC. Synergy with other anti-mycobacterial drugs was determined in two drug combinations by checkerboard titration using a microdilution method. Fractional inhibitory concentration (FIC) is the MIC in combination divided by the MIC of individual drug. An FIC index (ΣFIC) of ≦0.5 indicates synergistic activity, ≧4.0 antagonistic activity and in between, additive effect. Synergistic activity was determined against MSMG, MTB, MAB and MAC. All the three CM analogues were tested in combination with INH, RIF, EMB and SM against MSMG. Similarly, all the three CM analogues were tested in combination with INH, EMB, SM and SQ109 against MTB. Only SQ641 was tested in combination with EMB, clarithromycin (CLA) and amikacin (AMK) against MAC.

[2] = system: Mycobacterium tuberculosis (MTB); test: MIC by BACTEC radiometric method; format: cell-based
Method: Determination of MIC. MIC of drugs for laboratory and clinical strains of Mycobacterium tuberculosis (MTB) was determined by BACTEC radiometric method as described by Heifets (1991), “Antituberculosis Drugs: Antimicrobial Activity in vitro, Drug Susceptibility in the Chemotherapy of Microbacterial Infections, Boca Raton, Fla., CRC Press and Luna-Herrera et al., Antimicrob. Agents and Chemother. 1995, 39(2), 440-444. […] The minimal inhibitory concentration (MIC) was defined as the lowest concentrations of drug that caused GI equal to or less than that of the 1/100 dilution growth control. Capuramycin analogues SQ641, SQ922 and SQ997 were tested at concentrations ranging from […].

[3] = system: intracellular MTB (MTBp-SMT1) in J774A.1 macrophages; test: Intracellular activity of SQ641-TPGS micelles; format: cell-based, Mycobacterium tuberculosis
MAC = test: Synergy by checkerboard titration (microdilution); format: cell-based, M. avium complex; settings: for MIC: Mycobacterium avium, drug alone
MTB in macrophages = format: cell-based, Mycobacterium tuberculosis
MTB cultures = test: Induction of morphological changes and bacterial disintegration; format: cell-based, Mycobacterium tuberculosis
From the text: Induction of morphological changes and bacterial disintegration. […] Tubercle bacilli exposed to CM analogues were typically club-shaped, with deeply stained swollen ends (see Reddy et al. Antimicrob. Agents Chemother., 2008, 52(2), 719-721).

MTB in J774 cells = test: Intracellular activity of amino acid conjugates; format: cell-based, Mycobacterium tuberculosis; settings: day 0 RLU 775, Control day 7 31700
Method: The amino acid conjugates were tested at concentrations of 4 mg/mL and 8 mg/mL compared with a control and isoniazid (INH).
The intracellular activity against MTB by capuramycin amino acid derivatives was tested. Cells J774 were infected with MTB and treated for 7 days with the amino acid derivative. The mean Relative Light Unites (RLU), an estimation of bacterial viability, was measured as described in Snewin et al., Infect. Immun., 1999, 67(9), 4586-4593).

[4] = system: MTB-pSMT1 luciferase reporter strain; test: Activity against slowly replicating (hypoxic) MTB; format: cell-based; settings: Mycobacterium tuberculosis
MSMG and MTB (H37Rv) = test: Minimum bactericidal concentration (MBC), MBC/MIC ratio; format: cell-based, Mycobacterium tuberculosis; M. smegmatis

CCCCCCCCCC(=O)O[C@@H]1[C@H](OC)[C@@H]([C@@H](O[C@H]2OC(C(=O)N[C@H]3CCC[C@@H](C)NC3=O)=C[C@H](O)[C@@H]2O)C(N)=O)O[C@H]1n1ccc(=O)[nH]c1=O [SQ641]
ΣFIC (M. smegmatis; M. smegmatis, SQ641 + EMB): 0.375
ΣFIC (M. smegmatis; M. smegmatis, SQ641 + INH): 0.25
ΣFIC (M. smegmatis; M. smegmatis, SQ641 + RIF): 0.75
ΣFIC (M. smegmatis; M. smegmatis, SQ641 + SM): 1.0
MIC Combination (M. smegmatis; M. smegmatis, combination SQ641 + EMB): 0.25 µg/mL
MIC Combination (M. smegmatis; M. smegmatis, combination SQ641 + INH): 0.25 µg/mL
MIC Combination (M. smegmatis; M. smegmatis, combination SQ641 + RIF): 1.0 µg/mL
MIC Combination (M. smegmatis; M. smegmatis, combination SQ641 + SM): 1.0 µg/mL
Synergy with other anti-mycobacterial drugs (M. smegmatis; MSMG): synergy in combination with INH and EMB in MSMG
MIC (M. smegmatis; Mycolicibacterium smegmatis, M. smegmatis, drug alone): 2 µg/mL
Mean RLU at Day 7 (MTB inside macrophages; 1 μg/ml): 1208 RLU
Mean RLU at Day 7 (MTB inside macrophages; 2 μg/ml): 1162 RLU
Mean RLU at Day 7 (MTB inside macrophages; 4 μg/ml): 1116 RLU
Mean RLU at Day 7 (MTB inside macrophages; 8 μg/ml): 441 RLU
Mean RLU at Day 7 (MTB inside macrophages; 16 μg/ml): 253 RLU
Mean RLU at Day 7 (MTB inside macrophages; 32 μg/ml): 190 RLU
Intracellular activity (FIG. 1) (MTB inside macrophages; 1× and 2× MIC): showed intracellular activities
MIC (M. abscessus; Mycobacteroides abscessus, drug alone): 0.5 µg/mL
ΣFIC (M. abscessus; SQ641 + RFB): 0.25
ΣFIC (M. abscessus; SQ641 + SM): 0.375
MIC Combination (M. abscessus; combination SQ641 + RFB): 0.062 µg/mL
MIC Combination (M. abscessus; combination SQ641 + SM): 0.062 µg/mL
MIC [1]: 0.5 µg/mL (≈ 0.678 µM)
Synergy with other anti-mycobacterial drugs (MTB): synergistic activity with EMB, the new diamine antitubercular SQ109, and streptomycin against MTB
ΣFIC (MTB; SQ641 + EMB): 0.156
MIC ([2]; H37RV, MTB strain H37Rv): 1 µg/mL (≈ 1.36 µM)
MIC90 ([2]; MTB): 4 µg/mL (≈ 5.42 µM)
MIC ([2]; MTB strain 16): 4 µg/mL (≈ 5.42 µM)
MIC ([2]; MTB strain 113): 1 µg/mL (≈ 1.36 µM)
MIC ([2]; MTB strain 158): 4 µg/mL (≈ 5.42 µM)
MIC ([2]; MTB strain 606): 4 µg/mL (≈ 5.42 µM)
MIC ([2]; MTB strain 847): 4 µg/mL (≈ 5.42 µM)
MIC ([2]; MTB strain 1351): 1 µg/mL (≈ 1.36 µM)
MIC ([2]; MTB strain 1407): 2 µg/mL (≈ 2.71 µM)
MIC ([2]; MTB strain 1498): 4 µg/mL (≈ 5.42 µM)
MIC ([2]; MTB strain 1665): 2 µg/mL (≈ 2.71 µM)
MIC ([2]; MTB strain 1703): 4 µg/mL (≈ 5.42 µM)
MIC ([2]; MTB strain 1760): 8 µg/mL (≈ 10.8 µM)
MIC ([2]; MTB strain 1782): 2 µg/mL (≈ 2.71 µM)
MIC ([2]; MTB strain 1901): 4 µg/mL (≈ 5.42 µM)
MIC ([2]; MTB strain 1921): 4 µg/mL (≈ 5.42 µM)
MIC ([2]; MTB strain 2224): 4 µg/mL (≈ 5.42 µM)
MIC ([2]; MTB strain 2554): 4 µg/mL (≈ 5.42 µM)
MIC ([2]; MTB strain 2693): 8 µg/mL (≈ 10.8 µM)
MIC ([2]; MTB strain 8266): 2 µg/mL (≈ 2.71 µM)
MIC ([2]; MTB strain 8642): 4 µg/mL (≈ 5.42 µM)
Mean RLU at Day 7 ([3]; Expt 1, one day drug exposure, 5 μg/ml, Day 0 RLU 104, CONTROL Day 7 906): 95 RLU
Mean RLU at Day 7 ([3]; Expt 1, one day drug exposure, 10 μg/ml, Day 0 RLU 104, CONTROL Day 7 906): 64 RLU
Mean RLU at Day 7 ([3]; Expt 1, one day drug exposure, 20 μg/ml, Day 0 RLU 104, CONTROL Day 7 906): 47 RLU
Mean RLU at Day 7 ([3]; Expt 2, four days drug exposure, 4 μg/ml, Day 0 RLU 205, CONTROL Day 7 491): 62 RLU
Mean RLU at Day 7 ([3]; Expt 2, four days drug exposure, 8 μg/ml, Day 0 RLU 205, CONTROL Day 7 491): 32 RLU
Mean RLU at Day 7 ([3]; Expt 2, four days drug exposure, 16 μg/ml, Day 0 RLU 205, CONTROL Day 7 491): 17 RLU
Mean RLU at Day 7 ([3]; Expt 2, four days drug exposure, 32 μg/ml, Day 0 RLU 205, CONTROL Day 7 491): 8 RLU
ΣFIC (MAC; MAC A5, SQ641 + AMK): 0.75
ΣFIC (MAC; MAC A5, SQ641 + CLA, ≦0.5 synergistic, ≧4.0 antagonistic): 0.75
MIC Combination (MAC; MAC A5, combination SQ641 + AMK): 0.125 µg/mL
MIC Combination (MAC; MAC A5, combination SQ641 + CLA): 0.125 µg/mL
MIC Combination (MAC; MAC A5, combination SQ641 + EMB): 0.062 µg/mL
ΣFIC (MAC; MAC JSH1, SQ641 + AMK): 0.625
ΣFIC (MAC; MAC JSH1, SQ641 + CLA): 2.0
MIC Combination (MAC; MAC JSH1, combination SQ641 + AMK): 0.125 µg/mL
MIC Combination (MAC; MAC JSH1, combination SQ641 + CLA): 1 µg/mL
MIC Combination (MAC; MAC JSH1, combination SQ641 + EMB): 0.25 µg/mL
ΣFIC (MAC; MAC NIH C1-1, SQ641 + AMK): 1.0
ΣFIC (MAC; MAC NIH C1-1, SQ641 + CLA): 2.0
MIC Combination (MAC; MAC NIH C1-1, combination SQ641 + AMK): 0.5 µg/mL
MIC Combination (MAC; MAC NIH C1-1, combination SQ641 + CLA): 2.0 µg/mL
MIC Combination (MAC; MAC NIH C1-1, combination SQ641 + EMB): 0.06 µg/mL
MIC (MAC; MAC A5): 0.25 µg/mL
MIC (MAC; MAC JSH1): 1 µg/mL
MIC (MAC; MAC NIH C1-1): 2 µg/mL
RLU lower than the drug dissolved in DMSO (MTB in macrophages): about 50%
Mean RLU on day 7 (MTB in macrophages; SQ641 2 μg/ml, day 0 RLU 1397, Control day 7 9075): 3535 RLU
Bacterial disintegration / clearance of MTB cultures (MTB cultures; MTB cultures): rapid bacterial disintegration
Turbidity of MTB cultures (MTB cultures; within 2 days of exposure): marked fall in the turbidity
Mean RLU on day 7 (MTB in J774 cells; 4 μg/ml): 4707 RLU
Mean RLU on day 7 (MTB in J774 cells; 8 μg/ml): 2755 RLU
MIC [4]: 0.5 µg/mL (≈ 0.678 µM)
MBC/MIC ratio (MSMG and MTB (H37Rv)): 1
